Key:
[1] = tested on: Salmonella typhimurium tester strain TA98; assay: Modified Ames test with Aroclor 1254-induced rat liver S9 on DMSO extract (specific mutagenic activity, revertants); assay type: cell-based
Procedure: (§1) The hydrocarbon mixture to be assayed is extracted with an equal volume of DMSO five times, and the extracts are combined. The combined extract, which serves as surrogate for the hydrocarbon itself, is assayed using Salmonella typhimurium tester strain TA98 together with Aroclor 1254-induced rat liver S9. Prior to use, the rat liver S9 homogenate, obtained from Litton Bionetics, Kensington, Md., was stored at -80° C., and thawed on ice for 4 hours prior to use.
The assay is conducted by first introducing into a series of sterile capped culture tubes up to about eight different doses of the combined extract. The doses, usually in the range of 10 to 75 microliters, are selected to delimit the linear portion of the doseresponse curve. Duplicate or triplicate tubes are prepared for each dose level. […] Plates are incubated inverted at 37° C. in the dark and revertant colonies are counted 48 hours later.
Spontaneous reversion rates (47±8.5) and negative (solvent) control rates (47±8.5) were determined for all tests. […]
Specific mutagenic activity is assessed from the slope of the linear portion of the dose response curve that is obtained, and may be reported as revertants per μl of extract. […]

[2] = tested on: Salmonella typhimurium tester strain TA98; assay: Modified Ames test with induced hamster liver S9 (TA98 revertants/plate); assay type: cell-based; conditions: 2 ug per plate
Procedure: as §1
The assay is conducted by first introducing into a series of sterile capped culture tubes up to about eight different doses of the combined extract. The doses, usually in the range of 10 to 75 microliters, are selected to delimit the linear portion of the doseresponse curve. Duplicate or triplicate tubes are prepared for each dose level. This is followed by 0.5 ml S9 mix containing 400 μl S9, 8 μM MgCl2, 33 μM KCl, 5 μM glucose-6-phosphate, 4 μM NADP and 100 μM sodium phosphate (pH 7.4), and 0.1 ml Salmonella typhimurium broth culture (1×10^9 cells/ml). The cultures are incubated at 37° C. with agitation for 20 minutes, following which top agar (0.6% agar, 0.5% NaCl, 0.5 mM histidine-biotin) is added. The tubes are vortexed to ensure adequate mixing and the contents overlaid on 30 ml Vogel-Bonner minimal media plates. Plates are incubated inverted at 37° C. in the dark and revertant colonies are counted 48 hours later. […]

## Nc1ccc2cc3ccccc3cc2c1 [2-aminoanthracene]
[1]; 2 ug per plate, 400 ul rat S9
  TA98 Revertants/Plate, 400 ul Rat S9: 313 Revertants/Plate
[1]; 2 μg/plate, TA98, rat liver S9
  revertants (positive control): 441±285 revertants
[2]; 400 ul hamster S9
  TA98 Revertants/Plate, 400 ul Hamster S9: 639 Revertants/Plate
[2]; 400 ul hamster S9 + 2xNADP (8 mM)
  TA98 Revertants/Plate, 400 ul Hamster S9 + 2xNADP: 977 Revertants/Plate
